# Test results reported in patent publication US8815535B2, “Disk diffusion assay for oritavancin” (The Medicines Company, priority 2011, dated 2014).
# Several values for one entry are separate records, joined by “and”; a condition that tells them apart may be missing. Equal entries are not always repeated. Where two headings read alike, the source gives them in different places.
# Tests used:
# Test in all cases: Disk diffusion assay (zone of inhibition)
# Assay type in all cases: cell-based, Staphylococcus aureus
# [1] = test system: hVISA NRS2; settings: Staphylococcus aureus, NRS2, NRS2; for zone of inhibition at 1250 µg/mL: read-out: Inhibition zone diameter
# From the text: (§1) The study was designed to identify conditions that improve oritavancin diffusion in agar and consequently yield a zone diameter ≧15 mm for the CLSI quality control strain MSSA ATCC 25923. Excipients that increased the disk diffusion of oritavancin in agar relative to disks containing only oritavancin were identified and selected for further study. […] A prediffusion step at room temperature was introduced to maximize oritavancin diffusion prior to initiation of bacterial growth. In this step, the antimicrobial disks were placed on agar plates seeded with a bacterial isolate and incubated at room temperature for 3 hours. Plates were then incubated overnight at 37° C. Zone diameters around the disks in which bacterial growth was inhibited were measured with a ruler and reported in millimeters.
# (§2) Ethanol-sterilized Whatman paper disks (6 mm diameter) were allowed to dry then impregnated with 20 microliters of oritavancin solution containing total amounts ranging from 90 to 360 micrograms. Disks were allowed to dry at room temperature for various times prior to use.
# (§3) Bacterial suspensions were prepared and adjusted to an optical density of 0.1 at 600 nm. Standard cation-adjusted Mueller Hinton agar plates (90 mm diameter) were seeded with bacterial suspensions by initially swabbing the center of plate then moving outward towards the edge. The plate was swabbed a second time, perpendicular to the orientation of the first swab. To assess the impact of prediffusion on diameter of inhibition zones, two disks were immediately placed on one half of the plate and the plate was incubated for 3 hours at room temperature. After 3 hours, two additional disks were placed on the other half of the plate then the plate was incubated overnight at 37° C. Zone diameters were measured with a ruler and reported in millimeters.
# (§4) Oritavancin powder was dissolved in freshly-prepared solutions of the indicated excipients at concentrations of 0.625, 1.25, 2.5, 5, and 10 mg/ml (adjusted for potency based on lot 875561L00 purity of 83.1%) by vortexing for a minimum of 5 minutes. Oritavancin solutions in the various excipients, while not visually clear, were free from any apparent particulates as assessed visually. Sterile Oxoid blank disks were impregnated with 20 μl of these oritavancin solutions, resulting in oritavancin disk loads ranging from 12.5 to 200 μg. Unless indicated otherwise, disks were allowed to dry overnight at room temperature prior to use.
# (§5) Bacterial suspensions from isolated colonies on overnight cation-adjusted Mueller Hinton agar plates were prepared in sterile saline and adjusted to an optical density of 0.1 at 600 nm Standard cation-adjusted Mueller Hinton agar plates (90 mm diameter) were seeded with bacterial suspensions by initially swabbing the center of plate then moving outward. Swabbing was continued at a right angle and then at an oblique angle to the first and second swabs. Disks were placed upon the seeded plates with sterile forceps. Plates were then incubated overnight at 37° C. and inhibition zone diameters were measured with a ruler and reported in millimeters.
# [2] = test system: VISA NRS3; settings: for zone of inhibition at 360 µg/disc: Staphylococcus aureus, 360 μg oritavancin, 3 h prediffusion, average of 2 disks, read-out: Average zone diameter
# From the text: as §1, §2, §3, §4, §5
# [3] = test system: MRSA U206056; settings: for zone of inhibition at 360 µg/disc: read-out: Zone diameter (mm ± SD)
# From the text: as §1, §2, §3, §4, §5
# [4] = test system: VISA NRS402; settings: for zone of inhibition at 360 µg/disc: Staphylococcus aureus
# From the text: as §1, §2, §3, §4, §5
# [5] = 360 μg in 5% P80, Average of experiments, no prediffusion, read-out: Zone diameter (mm ± SD)
# [6] = 360 μg in 5% P80, Average of experiments, prediffusion, read-out: Zone diameter (mm ± SD)
# [7] = 360 μg in 5% P80, Experiment 1, disks stored 14 days, 3 h prediffusion at room temperature, read-out: Zone diameter (mm ± SD)
# [8] = 360 μg in 5% P80, Experiment 2, disks stored 8 days, 3 h prediffusion at room temperature, read-out: Zone diameter (mm ± SD)
# [9] = 360 μg oritavancin, excipient 5% P80, disks stored 5 days at room temperature, 3 h prediffusion, average of 2 disks, read-out: Average zone diameter
# [10] = 25 μg (1.25 mg/ml) in 4% P80/Span 80 (1:1), dried overnight
smiles,measurement,setting,value
"CN[C@H](CC(C)C)C(=O)N[C@H]1C(=O)N[C@@H](CC(N)=O)C(=O)N[C@H]2C(=O)N[C@H]3C(=O)N[C@H](C(=O)N[C@H](C(=O)O)c4cc(O)cc(O)c4-c4cc3ccc4O)[C@H](O[C@H]3C[C@](C)(N)[C@@H](O)[C@H](C)O3)c3ccc(c(Cl)c3)Oc3cc2cc(c3O[C@@H]2O[C@H](CO)[C@@H](O)[C@H](O)[C@H]2O[C@H]2C[C@](C)(NCc3ccc(-c4ccc(Cl)cc4)cc3)[C@@H](O)[C@H](C)O2)Oc2ccc(cc2Cl)[C@H]1O [oritavancin, N-(4-(4-chlorophenyl)benzyl)A82846B]",zone of inhibition at 360 µg/disc,[1]; [5],14.9 ± 0.8 mm
same,zone of inhibition at 360 µg/disc,[1]; [6],17.3 ± 0.3 mm
same,zone of inhibition at 360 µg/disc,[1]; [7],17.5 mm
same,zone of inhibition at 360 µg/disc,[1]; [8],17 mm
same,zone of inhibition at 360 µg/disc,[1]; [9],17.8 mm
same,zone of inhibition at 1250 µg/mL,[1]; 20 μl of 1.25 mg/ml oritavancin in 1% poly(ethylene glycol) sorbitol hexaoleate,9 mm
same,zone of inhibition at 1250 µg/mL,[1]; 20 μl of 1.25 mg/ml oritavancin in 5% Brij 30,8 mm
same,zone of inhibition at 1250 µg/mL,[1]; 20 μl of 1.25 mg/ml oritavancin in 5% Merpol SE,11 mm
same,Inhibition zone diameter,[2]; [10],no zone
same,zone of inhibition at 360 µg/disc,"[2]; excipient 5% P80, disks stored 5 days at room temperature",14 mm
same,zone of inhibition at 360 µg/disc,"[2]; excipient 10% HPCD, disks made same day",16.8 mm
same,Inhibition zone diameter,[3]; [10],"17 mm and 18, 18 mm"
same,zone of inhibition at 25 µg/disc,"[3]; Staphylococcus aureus, MRSA, 25 μg (1.25 mg/ml) in 4% P80/Span 80 (1:1), dried overnight, read-out: Inhibition zone diameter",18 mm
same,zone of inhibition at 360 µg/disc,"[3]; Staphylococcus aureus, MRSA, 360 μg in 5% P80, Average of experiments, no prediffusion",15 ± 0.6 mm
same,zone of inhibition at 360 µg/disc,"[3]; Staphylococcus aureus, MRSA, 360 μg in 5% P80, Average of experiments, prediffusion",17.4 ± 0.5 mm
same,zone of inhibition at 360 µg/disc,"[3]; Staphylococcus aureus, MRSA, 360 μg in 5% P80, Experiment 1, disks stored 14 days, 3 h prediffusion at room temperature",17.8 ± 0.4 mm
same,zone of inhibition at 360 µg/disc,"[3]; Staphylococcus aureus, MRSA, 360 μg in 5% P80, Experiment 2, disks stored 8 days, 3 h prediffusion at room temperature",17 mm
same,zone of inhibition at 360 µg/disc,"[3]; Staphylococcus aureus, MRSA, 192 h, 360 μg in 5% P80, Experiment 2, disks stored 8 days, no prediffusion",14.5 mm
same,zone of inhibition at 360 µg/disc,"[3]; Staphylococcus aureus, MRSA, 336 h, 360 μg in 5% P80, Experiment 1, disks stored 14 days, no prediffusion",15.5 mm
same,Inhibition zone diameter,[4]; [10],no zone
same,zone of inhibition at 360 µg/disc,[4]; [5],13.1 ± 0.3 mm
same,zone of inhibition at 360 µg/disc,[4]; [6],14.5 ± 0.4 mm
same,zone of inhibition at 360 µg/disc,[4]; [7],14.8 ± 0.4 mm
same,zone of inhibition at 360 µg/disc,[4]; [8],14.3 ± 0.4 mm
same,zone of inhibition at 360 µg/disc,[4]; [9],14.8 mm
same,zone of inhibition at 360 µg/disc,"[4]; 3 h, 360 μg oritavancin, excipient 10% HPCD, disks made same day, 3 h prediffusion, average of 2 disks, read-out: Average zone diameter",17.5 mm
same,zone of inhibition at 360 µg/disc,"[4]; 192 h, 360 μg in 5% P80, Experiment 2, disks stored 8 days, no prediffusion, read-out: Zone diameter (mm ± SD)",13 mm
same,zone of inhibition at 360 µg/disc,"[4]; 336 h, 360 μg in 5% P80, Experiment 1, disks stored 14 days, no prediffusion, read-out: Zone diameter (mm ± SD)",13.3 ± 0.4 mm
